Measurements as given in patent publication US9289503B2, “Fatty acid fumarate derivatives and their uses” (Catabasis Pharmaceuticals, Inc., priority 2010, dated 2016).

Columns and labels:
Assay type in all cases: cell-based
[1] = tested on: IL-1β; assay: IL-1β gene expression in LPS-stimulated RAW264.7 macrophages; conditions: 10 μM; 2 hours pre-incubation, 100 ng/ml LPS 3 hours; compared with 10 μM each DHA and MMF; FIG. 1
Procedure: RAW264.7 macrophages were seeded at a density of 100,000 cells/well in a 96-well plate in DMEM supplemented with 10% FBS and Penn/strep. 16 hours later, medium was aspirated and replaced with 90 μl/well of serum-free DMEM. A fatty acid fumarate conjugate, DHA and monomethyl-fumarate (MMF) were brought up in 100% EtOH to a concentration of 100 mM and then diluted 1:100 in 100% FBS for a stock solution consisting of 1 mM compound and 1% EtOH. these stock solutions were then diluted 1:10 in FBS supplemented with 1% EtOH to generate a 100 μM of a fatty acid fumarate conjugate and 100 μM each of DHA and MMF. 10 μl was then added to the RAW246.7 cells to generate final concentrations 10 μM of the fatty acid fumarate conjugate or 10 μM each DHA and MMF, along with vehicle only control. […] IL-1β and TNF-α transcript levels were then measured using Taqman primer/probe assay sets (Applied Biosystems), normalized to GAPDH using the deltaCt method, and the data expressed relative to vehicle only control. […]
RAW264.7 macrophages are seeded at a density of 100,000 cells/well in a 96-well plate in DMEM supplemented with 10% FBS and Penn/strep. […] Transcript levels are then measured using ABI Taqman primer/probe assay kits, normalized to GAPDH using the deltaCt method, and the data expressed relative to vehicle only control.

[2] = tested on: Hmox1; assay: Hmox1 target gene expression in RAW264.7 macrophages; conditions: RAW264.7, 2 hours pre-incubation, 100 ng/ml LPS 3 hours; FIG. 3
Procedure: RAW264.7 macrophages are seeded at a density of 100,000 cells/well in a 96-well plate in DMEM supplemented with 10% FBS and Penn/strep. 16 hours later, medium is aspirated and replaced with 90 μl/well of serum-free DMEM. A fatty acid fumarate conjugate, DHA and EPA are brought up in 100% EtOH to a concentration of 100 mM and then diluted 1:100 In 100% FBS for a 20× stock solution consisting of 1 mM compound and 1% EtOH. The fatty acid fumarate conjugate 20× stock solutions are diluted 1:2 in FBS supplemented with 1% EtOH for a 500 uM 10× stock solution, whereas equal volumes of the DHA and EPA 20× stock solutions are mixed to create a 10× stock solution containing 500 μm each of DHA and EPA. […] The compounds are allowed to pre-incubate for 2 hours before stimulation of 100 ng/ml LPS (10 μl of 1 μg/ml LPS is added to each well). Following 3 hours of LPS stimulation, cells are washed once in 1× PBS, aspirated dry, and flash frozen in liquid nitrogen. RNA is then isolated and converted to cDNA using the Cells to cDNA kit (Ambion) according to the manufacturer's protocol. Transcript levels are then measured using ABI Taqman primer/probe assay kits, normalized to GAPDH using the deltaCt method, and the data expressed relative to vehicle only control.

[3] = tested on: TNF-α; assay: TNF-α gene expression in LPS-stimulated RAW264.7 macrophages; conditions: 10 μM; 2 hours pre-incubation, 100 ng/ml LPS 3 hours; compared with 10 μM each DHA and MMF; FIG. 1
Procedure: RAW264.7 macrophages were seeded at a density of 100,000 cells/well in a 96-well plate in DMEM supplemented with 10% FBS and Penn/strep. 16 hours later, medium was aspirated and replaced with 90 μl/well of serum-free DMEM. A fatty acid fumarate conjugate, DHA and monomethyl-fumarate (MMF) were brought up in 100% EtOH to a concentration of 100 mM and then diluted 1:100 in 100% FBS for a stock solution consisting of 1 mM compound and 1% EtOH. these stock solutions were then diluted 1:10 in FBS supplemented with 1% EtOH to generate a 100 μM of a fatty acid fumarate conjugate and 100 μM each of DHA and MMF. 10 μl was then added to the RAW246.7 cells to generate final concentrations 10 μM of the fatty acid fumarate conjugate or 10 μM each DHA and MMF, along with vehicle only control. The compounds were allowed to pre-incubate for 2 hours before stimulation of 100 ng/ml LPS (10 μl of 1 μg/ml LPS was added to each well). Following 3 hours of LPS stimulation, cells were washed once in 1× PBS, aspirated dry, and flash frozen in liquid nitrogen. RNA was then isolated and converted to cDNA using the Cells to cDNA kit (Ambion) according to the manufacturer's protocol. IL-1β and TNF-α transcript levels were then measured using Taqman primer/probe assay sets (Applied Biosystems), normalized to GAPDH using the deltaCt method, and the data expressed relative to vehicle only control. […]

For `CC/C=C\C/C=C\C/C=C\C/C=C\C/C=C\C/C=C\CCC(=O)NCCNC(=O)/C=C/C(=O)OC` [Compound I-1, (E)-methyl 4-(2-(4Z,7Z,10Z,13Z,16Z,19Z)-docosa-4,7,10,13,16,19-hexaenamidoethylamino)-4-oxobut-2-enoate], the IL-1β gene expression [1] was “greater reduction”, the “effect on the target gene Hmox1” value [2] was “positive effect” and the TNF-α gene expression [3] was “greater reduction”.
